In brackets after ≈: the same amount, converted by molar mass. Read-outs that look alike come from different tables or passages of the source. Residues, ends and D or L forms follow the SMILES beside them.

Experiment [1] deals with Pseudomonas aeruginosa (PSA, ATCC 27883). As to the kind of experiment: microbe, parasite or virus in culture. The note with it: ATCC27883, 24 h.
Experiment [2] has as its system Klebsiella pneumoniae (KPC, ATCC BAA-1705). In words: microbe, parasite or virus in culture. The conditions noted are these: ATCCBAA1705, 24 h.
Experiment [3] has as its system MRSA (ATCC BAA-1556). The note with it: MRSA (ATCC BAA-1556), antibiotic alone.
For experiment [4], the system named is Escherichia coli (E. Coli, ATCC 25922). The note with it: Table 25; Escherichia coli (ATCC 25922); antibiotic alone.
The test system of experiment [5] is Pseudomonas aeruginosa (PSA, ATCC 27883). In words: Synergy checkerboard assay (FIC index). In kind it is cell-based. The note with it: Pseudomonas aeruginosa (ATCC 27883), antibiotic alone.
The subject of experiment [6] is Escherichia coli (E. Coli, ATCC 25922). In words: microbe, parasite or virus in culture. The note with it: ATCC25922, 24 h.
Experiment [7] deals with Klebsiella pneumoniae (KPC, ATCC BAA-1705). The note with it: Table 26; Klebsiella pneumoniae (ATCC BAA-1705); antibiotic alone.
The test system of experiment [8] is Methicillin-resistant Staphylococcus aureus MRSA (ATCC BAA-1556). In words: microbe, parasite or virus in culture. The conditions noted are these: ATCCBAA1556|MRSA, 24 h.
Experiment [9] concerns E. coli.
Experiment [10] concerns KPC.
Experiment [11] concerns PSA.
Experiment [12] has as its system MRSA.
Experiment [13] deals with Enterococcus faecium ATCC 27270. The note with it: ATCC 27270.
The mark [14] stands for this setting: read-out: Pseudomonas aeruginosa (ATCC 27883) MIC, Table 29, [R6W4] (IFX-318), antibiotics alone and PHY-MIX (1:1 w/w).
Setting [15] is: read-out: Pseudomonas aeruginosa (ATCC 27883) MIC, Table 30, [R5W4K] (IFX-315), antibiotics alone and PHY-MIX (1:1 w/w).
Where [16] appears, read: read-out: Klebsiella pneumoniae (ATCC BAA-1705) MIC, Table 29, [R6W4] (IFX-318), antibiotics alone and PHY-MIX (1:1 w/w).
The mark [17] stands for this setting: read-out: Klebsiella pneumoniae (ATCC BAA-1705) MIC, Table 30, [R5W4K] (IFX-315), antibiotics alone and PHY-MIX (1:1 w/w).
The mark [18] stands for this setting: read-out: Klebsiella pneumoniae (ATCC BAA-1705) MIC, Table 31, [R5W4] (IFX-301), antibiotics alone and PHY-MIX (1:1 w/w).
The mark [19] stands for this setting: read-out: Escherichia coli (ATCC 25922) MIC, Table 30, [R5W4K] (IFX-315), antibiotics alone and PHY-MIX (1:1 w/w).
Where [20] appears, read: read-out: Escherichia coli (ATCC 25922) MIC, Table 31, [R5W4] (IFX-301), antibiotics alone and PHY-MIX (1:1 w/w).
Setting [21] is: read-out: MRSA (ATCC BAA-1556) MIC, Table 31, [R5W4] (IFX-301), antibiotics alone and PHY-MIX (1:1 w/w).

`NC[C@H]1O[C@H](O[C@H]2[C@H](O)[C@@H](O[C@H]3O[C@H](CO)[C@@H](O)[C@H](N)[C@H]3O)[C@H](N)C[C@@H]2N)[C@H](N)C[C@@H]1O` [Tobramycin]: the MIC was determined as 0.5 µg/mL (≈ 1.07 µM) in experiment [1] (setting [14]); 0.5 µg/mL (≈ 1.07 µM) in experiment [1] (setting [15]); 0.5 µg/mL (≈ 1.07 µM) in experiment [1] (read-out: Pseudomonas aeruginosa (ATCC 27883) MIC, Table 31, [R5W4] (IFX-301), antibiotics alone and PHY-MIX (1:1 w/w)); 16 µg/mL (≈ 34.2 µM) in experiment [2] (setting [16]); 16 µg/mL (≈ 34.2 µM) in experiment [2] (setting [17]); 16 µg/mL (≈ 34.2 µM) in experiment [2] (setting [18]). Also, the MIC was 8 µg/mL (≈ 17.1 µM) in experiment [6] (setting [19]); 8 µg/mL (≈ 17.1 µM) in experiment [6] (setting [20]); 0.5 µg/mL (≈ 1.07 µM) in [8] (read-out: MRSA (ATCC BAA-1556) MIC, Table 30, [R5W4K] (IFX-315), antibiotics alone and PHY-MIX (1:1 w/w)); 0.5 µg/mL (≈ 1.07 µM) in experiment [8] (setting [21]). Moreover, the MIC of antibiotic in experiment [3] amounted to 0.5 µg/mL; in experiment [3] (Table 25), 0.5 µg/mL; in experiment [4], 8 µg/mL; in [5] (Table 26), 0.5 µg/mL. For the same molecule, the antibiotic MIC in experiment [5] (Table 27) amounted to 0.5 µg/mL. The MIC of antibiotics in [7] amounted to 16 µg/mL.

Take `N=C(N)NCCC[C@@H]1NC(=O)[C@H](CCCNC(=N)N)NC(=O)[C@H](CCCNC(=N)N)NC(=O)[C@H](CCCNC(=N)N)NC(=O)[C@H](Cc2c[nH]c3ccccc23)NC(=O)[C@H](Cc2c[nH]c3ccccc23)NC(=O)[C@H](Cc2c[nH]c3ccccc23)NC(=O)[C@H](Cc2c[nH]c3ccccc23)NC(=O)[C@H](CCCNC(=N)N)NC(=O)[C@H](CCCNC(=N)N)NC(=O)[C@H](CCCNC(=N)N)NC1=O` [[R7W4] (IFX-322)] (cyclo(RRRRRRRWWWW)): the “MIC Escherichia coli (ATCC 25922)” value in experiment [9] amounted to 32 µg/mL (≈ 17.4 µM). In [10], the “MIC Klebsiella pneumoniae (ATCC BAA-1705)” value (“MIC Klebsiella pneumoniae” for short) was found to be 64 µg/mL (≈ 34.8 µM). For the same molecule, in [11], the “MIC Pseudomonas aeruginosa (ATCC 27883)” value amounted to 32 µg/mL (≈ 17.4 µM). Moreover, the “MIC MRSA ATCC BAA-1556” value in [12] is 16 µg/mL (≈ 8.7 µM).

For the molecule `N=C(N)NCCC[C@@H]1NC(=O)[C@H](CCCNC(=N)N)NC(=O)[C@H](Cc2c[nH]c3ccccc23)NC(=O)[C@H](Cc2c[nH]c3ccccc23)NC(=O)[C@H](Cc2c[nH]c3ccccc23)NC(=O)[C@H](CCCNC(=N)N)NC1=O` [[R3W3] (IFX-302)] (cyclo(WWWRRR)), the “MIC Escherichia coli (ATCC 25922)” value in [9] was found to be 32 µg/mL (≈ 31.2 µM). For the same molecule, the “MIC Klebsiella pneumoniae” value in experiment [10] worked out at 64 µg/mL (≈ 62.3 µM). Further, the “MIC Pseudomonas aeruginosa (ATCC 27883)” value in experiment [11] was 128 µg/mL (≈ 125 µM). Moreover, the “MIC MRSA ATCC BAA-1556” value in experiment [12] is 16 µg/mL (≈ 15.6 µM).

Turning to `N=C(N)NCCC[C@@H]1NC(=O)[C@H](CCCNC(=N)N)NC(=O)[C@H](CCCNC(=N)N)NC(=O)[C@H](Cc2c[nH]c3ccccc23)NC(=O)[C@H](Cc2c[nH]c3ccccc23)NC(=O)[C@H](Cc2c[nH]c3ccccc23)NC(=O)[C@H](Cc2c[nH]c3ccccc23)NC(=O)[C@H](CCCNC(=N)N)NC(=O)[C@H](CCCNC(=N)N)NC1=O` [[R5W4] (IFX-301)], the “MIC Escherichia coli (ATCC 25922)” value in experiment [9] is 16 µg/mL (≈ 10.5 µM). In experiment [10], the “MIC Klebsiella pneumoniae” value was 32 µg/mL (≈ 21 µM). For the same molecule, the “MIC Pseudomonas aeruginosa (ATCC 27883)” value in experiment [11] is 32 µg/mL (≈ 21 µM). The molecule further showed an MIC in experiment [13] of 8 µg/mL (≈ 5.24 µM). Besides, in experiment [12], the MIC turned out to be 4 µg/mL (≈ 2.62 µM) and the “MIC MRSA ATCC BAA-1556” value amounted to 4 µg/mL (≈ 2.62 µM).

`N=C(N)NCCC[C@@H]1NC(=O)[C@H](CCCNC(=N)N)NC(=O)[C@H](CCCNC(=N)N)NC(=O)[C@H](CCCNC(=N)N)NC(=O)[C@H](Cc2c[nH]c3ccccc23)NC(=O)[C@H](Cc2c[nH]c3ccccc23)NC(=O)[C@H](Cc2c[nH]c3ccccc23)NC(=O)[C@H](Cc2c[nH]c3ccccc23)NC(=O)[C@H](CCCNC(=N)N)NC(=O)[C@H](CCCNC(=N)N)NC1=O` [[R6W4] (IFX-318)] (cyclo(RRRRRRWWWW)): the “MIC Escherichia coli (ATCC 25922)” value in experiment [9] was determined as 32 µg/mL (≈ 19 µM). Further, the “MIC Klebsiella pneumoniae” value in experiment [10] was 64 µg/mL (≈ 38.1 µM). The “MIC Pseudomonas aeruginosa (ATCC 27883)” value in experiment [11] was determined as 16 µg/mL (≈ 9.51 µM). Also, in [12], the MIC is 8 µg/mL (≈ 4.76 µM) and the “MIC MRSA ATCC BAA-1556” value is 4 µg/mL (≈ 2.38 µM).

Regarding `N=C(N)NCCC[C@@H]1NC(=O)[C@H](CCCNC(=N)N)NC(=O)[C@H](CCCNC(=N)N)NC(=O)[C@H](Cc2c[nH]c3ccccc23)NC(=O)[C@H](Cc2c[nH]c3ccccc23)NC(=O)[C@H](Cc2c[nH]c3ccccc23)NC(=O)[C@H](Cc2c[nH]c3ccccc23)NC(=O)[C@H](Cc2c[nH]c3ccccc23)NC(=O)[C@H](CCCNC(=N)N)NC(=O)[C@H](CCCNC(=N)N)NC1=O` [[R5W5] (IFX-314)] (cyclo(RRRRRWWWWW)), the “MIC Escherichia coli (ATCC 25922)” value in experiment [9] came out at 16 µg/mL (≈ 9.35 µM). The “MIC Klebsiella pneumoniae” value in [10] was 32 µg/mL (≈ 18.7 µM). For the same molecule, the “MIC Pseudomonas aeruginosa (ATCC 27883)” value in experiment [11] stood at 32 µg/mL (≈ 18.7 µM). In addition, in experiment [12], the “MIC MRSA ATCC BAA-1556” value came to 4 µg/mL (≈ 2.34 µM).

`Cc1ncc([N+](=O)[O-])n1CCO` [Metronidazole]: the MIC is greater than 32 µg/mL in experiment [1] (setting [14]); greater than 32 µg/mL in experiment [1] (setting [15]); greater than 32 µg/mL in [2] (read-out: Klebsiella pneumoniae (ATCC BAA-1705) MIC, Table 28, IFX-031, antibiotics alone and PHY-MIX (1:1 w/w)); greater than 32 µg/mL in experiment [2] (setting [16]); greater than 32 µg/mL in experiment [2] (setting [17]); greater than 32 µg/mL in experiment [2] (setting [18]). The MIC in [6] (read-out: Escherichia coli (ATCC 25922) MIC, Table 28, IFX-031, antibiotics alone and PHY-MIX (1:1 w/w)) was greater than 32 µg/mL; in [6] (read-out: Escherichia coli (ATCC 25922) MIC, Table 29, [R6W4] (IFX-318), antibiotics alone and PHY-MIX (1:1 w/w)), greater than 32 µg/mL; in [6] (setting [19]), greater than 32 µg/mL; in [6] (setting [20]), greater than 32 µg/mL; in [8] (read-out: MRSA (ATCC BAA-1556) MIC, Table 28, IFX-031, antibiotics alone and PHY-MIX (1:1 w/w)) it was greater than 32 µg/mL; in [8] (setting [21]), greater than 32 µg/mL.

As for “H-RRRRRWWWWK-OH [Linear R5W4K (SEQ ID NO. 36)]”, the “MIC Escherichia coli (ATCC 25922)” value in experiment [9] turned out to be 32 µg/mL. The “MIC Klebsiella pneumoniae” value in experiment [10] stood at 64 µg/mL. Also, the “MIC Pseudomonas aeruginosa (ATCC 27883)” value in experiment [11] worked out at 32 µg/mL. Besides, in experiment [12], the “MIC MRSA ATCC BAA-1556” value worked out at 8 µg/mL.

On to `N=C(N)NCCC[C@@H]1NC(=O)[C@H](CCCNC(=N)N)NC(=O)[C@H](CCCNC(=N)N)NC(=O)[C@H](Cc2c[nH]c3ccccc23)NC(=O)[C@H](Cc2c[nH]c3ccccc23)NC(=O)[C@H](Cc2c[nH]c3ccccc23)NC(=O)[C@H](Cc2c[nH]c3ccccc23)NC(=O)[C@H](CCCNC(=N)N)NC1=O` [[R4W4] (IFX-326)] (cyclo(RRRRWWWW)), for which the “MIC Escherichia coli (ATCC 25922)” value in experiment [9] was found to be 16 µg/mL (≈ 11.7 µM). In addition, the “MIC Klebsiella pneumoniae” value in experiment [10] was found to be 32 µg/mL (≈ 23.4 µM). In experiment [11], the “MIC Pseudomonas aeruginosa (ATCC 27883)” value was 64 µg/mL (≈ 46.7 µM). The “MIC MRSA ATCC BAA-1556” value in experiment [12] turned out to be 4 µg/mL (≈ 2.92 µM).

For the origin of these results see patent US20220289794A1, “SYNTHETIC ANTIMICROBIAL PEPTIDES” (priority 2019, published 2022).
